Assay results reported in paper PMC9962372, “Antiparasitic Meroterpenoids Isolated from Memnoniella dichroa CF-080171” (Pharmaceutics, 2023).
Read-outs that look alike come from different tables or passages of the source.

Legend:
P. falciparum 3D7 [1] = experiment: P. falciparum 3D7 lactate dehydrogenase whole parasite assay; assay type: cell-based, Plasmodium falciparum; settings: for EC50: Plasmodium falciparum
Method: The EC50 determinations of the isolated compounds were performed with 16-point dose-response curves. Each concentration was evaluated in triplicate (concentration range of 100–0.00305 µM) using the P. falciparum 3D7 lactate dehydrogenase whole parasite assay as previously described by Pérez-Moreno et al., 2016 [25]. The Plasmodium falciparum 3D7 strain is a clone of the NF54 strain, which was previously isolated from a patient. The parasites were maintained in O^+ human erythrocytes at 5% haematocrit and 0.1–8% parasitaemia, with incubation at 37 °C, 1% O2, 5% CO2, and 94% N2 in complete medium (10.4 g/L RPMI 1640, 150 μM hypoxanthine, 12.5 μg/mL gentamicin, 0.2% NaHCO3, 0.5% albuMAX II, 2% human O^+ serum). The […] (LDH) assay was performed in 384-well plates using late-ring/early trophozoite synchronized parasites at 2% hematocrit and 0.25% parasitaemia. Twenty-five microliters of (25 µL) parasite culture were incubated with 5 µL of the test compounds (parasite medium/100 nM chloroquine used as positive/negative growth controls) for 72 h, after which the plates were frozen for 4 h, thawed for 1 h at room temperature before adding 70 µL of freshly prepared LDH solution (1 U/mL diaphorase, 143 µM APAD, 143 mM sodium L-lactate, 178.75 µM NBT, 0.7% Tween 20, 100 mM Tris-HCL) at pH 8.0. Plates were briefly shaken and incubated for 10 min (in the dark), and absorbance was read at 650 nm in an Envision plate reader (Perkin Elmer, Waltham, MA, USA).
(§1) The EC50 of all the biological assays were computed with the Genedata Screener application (Genedata AG, Basel, Switzerland) using the equation below to calculate percentage inhibition: Percentage inhibition=[1−(Abswell−Absneg/Abspos−Absneg)]×100
(§2) Here, Abswell = absorbance/well, Abspos = average absorbance in positive control wells, and Absneg = average absorbance in negative wells.

T. cruzi Tulahuen C4 = experiment: Transgenic T. cruzi β-D-galactosidase assay in infected L6 cells; assay type: cell-based, Trypanosoma cruzi; settings: for EC50: 96 h, infected L6 host cells, β-galactosidase readout, read-out: Antiparasitic EC50 T. cruzi Tulahuen C4; for activity against T. cruzi Tulahuen (in words): whole parasites, extracts in HTS / bioassay-guided testing
Method: as §1, §2
The EC50 determinations of the isolated compounds were performed with 16-point dose-response curves. Each concentration was evaluated in triplicate (concentration range of 50–0.00152 µM) in the transgenic T. cruzi β-D-galactosidase assay as previously described by Annang et al., 2014 [27]. The T. cruzi Tulahuen strain used is a genetically modified strain that expresses the Escherichia coli β-galactosidase gene, lacZ [28]. It was kindly supplied by Marcel Kaiser (Swiss Tropical and Public Health Institute). The parasites were generally maintained in a growth medium (RPMI 1640 supplemented with 10% inactivated fetal bovine serum (iFBS), 100 µg/mL streptomycin, 100 U/mL penicillin, 2 mM L-glutamine) at 37 °C, 5% CO2. For the assay, transgenic trypomastigote stage parasites were used to infect L6 rat skeletal muscle cells (host). Fifty-five microliters (55 µL) of the infected L6 cell culture were dispensed into 384-well assay plates (2 × 10^3 infected L6 cells/well) containing 5 µL of the test compounds (parasite medium/10 µgmL^−1 benznidazole were used as positive/negative growth controls) and incubated for 96 h at 37 °C, after which 15 µL of assay solution (100 µM CRPG and 0.1% NP40 made up in PBS) were added to each well, and plates were further incubated in the dark for 4 h at 37 °C. Absorbance in the wells was read at 585 nm in an Envision plate reader (Perkin Elmer, Waltham, MA, USA).

[2] = MTT-based cytotoxicity assay in HepG2 cells; assay type: cell-based; settings: human, Hep G2 liver carcinoma cells (ATCC HB-8065); 72 h, MTT; read-out: Cytotoxic EC50 Hep G2
Method: as §1, §2
(§3) The EC50 determinations of the isolated compounds were performed with 12-point dose-response curves. Each concentration was evaluated in triplicate (concentration range of 50–0.0244 µM) in an MTT-based assay performed in liver carcinoma Hep G2 HB-8065 ATCC (American Type Culture Collection) cells as previously described by Annang et al., 2020 [29]. Cells (96-well plates were used with seeding at 1 × 10^4 cells/well) were cultured in 200 µL MEM medium per well at 37 °C, 5% CO2 for 24 h, after which the spent media were replaced with 200 µL MEM medium and 1 μL of test compounds. DMSO (0.5%), 8 mM methyl methanesulfonate and doxorubicin were used as positive, negative, and standard drug controls, respectively. After 72 h incubation with the test compounds at 37 °C, 100 µL of 0.5 mg/mL MTT solution diluted in MEM without phenol red was added to each well, and plates were briefly shaken and further incubated for 3 h at 37 °C. The supernatant in each well was carefully discarded and replaced with 100 µL of DMSO, and plates were gently shaken (to solubilize the formazan formed) before reading the absorbance at 570 nm in a Victor2 plate reader (Perkin Elmer, USA).

Hep G2 cells = experiment: MTT-based cytotoxicity assay in HepG2 cells; assay type: cell-based; settings: Hep G2 EC50 versus P. falciparum 3D7 EC50
Method: as §1, §2, §3

[3] = Cytotoxicity assay (resazurin) in L6 rat skeletal muscle cells; assay type: cell-based; settings: L6 rat skeletal muscle cells (ATCC CRL-1458), read-out: Cytotoxic EC50 L6
Method: Seeding of the L6 cells was done in 96-well plates at 4 × 10^3 cells per well in 100 µL volume; they were then cultured for 24 h. Ten millimolar (10 mM) DMSO stocks of the compounds to be tested were used to prepare 16-point dose-response curves. Each concentration was evaluated in triplicate (using the cell culture medium as diluent) at a final volume of 300 µL (compound concentration range of 50–0.00152 µM and DMSO at 0.5 %). The spent growth medium from the 24 h-seeded cells was carefully replaced with 100 µL of the prepared working concentrations of the compounds to be tested and incubated for 72 h. The spent medium was again carefully replaced (without disturbing the layer of cells at the bottom of each well) with 100 µL fresh medium, after which 20 µL of 0.02% resazurin (previously diluted in 1X PBS) was added to the wells and incubated for 2 h in the dark at 37 °C. The plates were then shaken for 5 s, and fluorescence was read at 570–590 nm in a TECAN Infinite F200 fluorimeter.

P. falciparum 3D7 [4] = experiment: P. falciparum 3D7 lactate dehydrogenase whole parasite assay; assay type: cell-based, Plasmodium falciparum; settings: whole parasites; extracts in HTS / bioassay-guided testing
[5] = test system: three different cell lines; design: method as in PMID 10656571; settings: at 100 µM; cited from earlier work
[6] = C3 ketone (1) versus C3 hydroxyl (2)
[7] = 3D7 / TULAHUEN, read-out: antiparasitic EC50 against both parasites (range)
[8] = 3D7, 72 h, LDH readout, 16-point curves in triplicate, read-out: Antiparasitic EC50 P. falciparum 3D7
[9] = Trypanosoma cruzi, TULAHUEN, L6, 96 h

| Compound | EC50 (P. falciparum 3D7 [1]; [8]) [nM] | EC50 (T. cruzi Tulahuen C4; [9]) [nM] | EC50 at 72 h [2] [nM] | Selectivity index (SI), Hep G2 in comparison to activity in P. falciparum 3D7 (Hep G2 cells) | EC50 at 72 h [3] [nM] | activity against T. cruzi Tulahuen (in words) (T. cruzi Tulahuen C4) | activity against P. falciparum 3D7 (in words) (P. falciparum 3D7 [4]) | also measured |
| --- | --- | --- | --- | --- | --- | --- | --- | --- |
| CC1(C)C(=O)CC[C@]2(C)[C@H]3Cc4c(O)cc5c(c4O[C@]3(C)CC[C@@H]12)CN(CCO)C5=O [Compound 1, Memnobotrin C] | 40 ± 2 | 226 | 1200 | 30 | < 98 |  |  | fold improvement of biological activity against P. falciparum 3D7 compared to compound 2 (P. falciparum 3D7 [1]; [6]): 5 fold; EC50 (P. falciparum 3D7 [1]; [7]): 40 to 1370 nM; EC50 (T. cruzi Tulahuen C4): 266 ± 24 nM; fold improvement of biological activity against T. cruzi Tulahuen C4 compared to compound 2 (T. cruzi Tulahuen C4; [6]): 5 fold |
| CC1(C)[C@@H](O)CC[C@]2(C)[C@H]3Cc4c(O)cc5c(c4O[C@]3(C)CC[C@@H]12)CN(CCO)C5=O [Compound 2, memnobotrin D] | 201 ± 16 | 1370 ± 18 | 4530 | 22.5 | 1390 ± 40 |  |  | EC50 (P. falciparum 3D7 [1]; [7]): 40 to 1370 nM |
| CC(=O)O[C@H]1CC[C@]2(C)[C@H]3Cc4c(O)cc5c(c4O[C@]3(C)CC[C@H]2C1(C)C)CN(CCO)C5=O [Compound 3, 8-epi-memnobotrin B] | 7170 ± 50 | 41770 ± 10 |  |  |  |  |  | fold lower potency against P. falciparum 3D7 in comparison to compound 1 (P. falciparum 3D7 [1]): 179 fold; fold lower potency against T. cruzi Tulahuen C4 in comparison to compound 1 (T. cruzi Tulahuen C4): 157 fold |
| CC(=CCc1c(O)cc2c(c1O)C(=O)OC2)CCC=C(C)CCCC(C)(C)OC1OC(CO)C(O)C(O)C1O (stereo not shown) [Compound 4] | 243 ± 23 | 934 ± 88 | 4840 | 19.9 |  |  |  |  |
| C/C(=C\CCC1(C)C=Cc2c(cc3c(c2O)C(=O)OC3)O1)CCC(O)C(C)(C)O (stereo not shown) [Compound 5] | 8000 ± 200 | > 50000 |  |  | > 50000 | low or no biological activity | low or no biological activity |  |
| Cc1cc(O)c2c(c1)O[C@]1(C)CC[C@H]3C(C)(C)[C@@H](O)CC[C@]3(C)[C@H]1C2 [Compound 6] | 4000 ± 100 | 7000 ± 200 |  |  | 2000 ± 100 | low or no biological activity | low or no biological activity |  |
| C=C1CC[C@H]2C(C)(C)C(=O)CC[C@]2(C)[C@H]1Cc1c(O)cc2c(c1O)C(=O)OC2 [Compound 7] | > 100000 | > 50000 |  |  | > 50000 | low or no biological activity | low or no biological activity |  |
| CC1(C)[C@@H](O)CC[C@]2(C)[C@H]3Cc4c(O)cc5c(c4O[C@]3(C)CC[C@@H]12)C(=O)OC5 [Compound 8] | 17800 ± 100 | > 50000 |  |  |  | low or no biological activity | low or no biological activity |  |
| CC(=O)O[C@H]1CC[C@]2(C)[C@H]3Cc4c(O)cc5c(c4O[C@@]3(C)CC[C@H]2C1(C)C)CN(CCO)C5=O [Memnobotrin B] |  |  |  |  |  |  |  | cytotoxic activity, inhibition percentages [5]: 80–90% |
